“And” between values parts separate entries of the source, which are not always exact repeats. Identical values can stand only once. Like-named read-outs stand apart in the source and are kept apart here.
What was measured:
[1] = Pharmacokinetic study, 3 mg/kg IV, 10 mg/kg PO and 10 mg/kg PO QD*3, plasma, liver and bone; type: in vivo, mouse; details: female, mouse
Procedure: The concentration of compound in plasma, liver, and long bones was detected using liquid chromatography tandem mass spectrometry (LC-MS/MS). Samples were collected after a single intraperitoneal (IP) administration at 30 mg/kg, a single intravenous (IV) administration at 3 mg/kg, a single oral (PO) administration at 10 mg/kg, and a daily PO administration for 3 consecutive days at 10 mg/kg. The compound was formulated in 75% PEG300 + 25% of 40% aq. HPBCD for IV and PO administration and in 60% Phosal + 40% PEG300 for IP administration. All tissue samples were homogenized in water at a tissue weight to water volume ratio 1:3.
IV administration, one 10 mg/kg PO administration and three 10 mg/kg PO administrations (QD*3). a Plasma, b liver and c bone profiles in female mice. The actual concentration (ng/g) is the detected value (ng/mL) multiplied by 4. Drug vehicle is 25% aq. 40% HP-b-CD - 75% PEG300. 3 mice were used per time point. Results are expressed as the mean ± SEM.

[2] = test system: trabecular bone of lumbar vertebrae; assay: Micro-CT of trabecular bone in L3 vertebral body after 8-week oral treatment; type: in vivo, mouse; details: 10 mg/kg PO 3 times per week, 8 weeks, individual mice

In the case of `O=C1Nc2ccc(-c3cc(C(F)(F)F)cc(C(F)(F)F)c3)cc2C(=O)N2CCN(C(=O)COc3ccc(OC(F)(F)F)cc3I)C[C@@H]12` [compound 6641], the concentration at 0.083 h ([1]; C57BL/6 J, liver, iv, 3 mg/kg, liver, IV, 0.083 h, individual animals, read-out: Liver 6641 IV concentration) is reported as 26000 ng/g, the concentration at 0.25 h ([1]; C57BL/6 J, liver, iv, 3 mg/kg, liver, IV, 0.25 h, individual animals, read-out: Liver 6641 IV concentration) is reported as 17200 ng/g and the concentration at 0.5 h ([1]; C57BL/6J, liver, iv, 3 mg/kg, liver, IV, 0.5 h, individual animals, read-out: Liver 6641 IV concentration) is reported as 8740 ng/g. For the same compound, the concentration at 3 h ([1]; C57BL/6J, liver, iv, 3 mg/kg, liver, IV, 3 h, individual animals, read-out: Liver 6641 IV concentration) was 1570 ng/g, the concentration at 7 h ([1]; C57BL/6 J, liver, iv, 3 mg/kg, liver, IV, 7 h, individual animals, read-out: Liver 6641 IV concentration) was 474 ng/g and the concentration at 24 h ([1]; C57BL/6 J, liver, iv, 3 mg/kg, liver, IV, 24 h, individual animals, read-out: Liver 6641 IV concentration) was 28 ng/g. For the same compound, the concentration at 0.083 h ([1]; C57BL/6 J, liver, po, 10 mg/kg, liver, PO (QD*3), 0.083 h, individual animals, read-out: Liver 6641 PO (QD*3) concentration) was 44.1 ng/g, the concentration at 1 h ([1]; C57BL/6J, liver, po, 10 mg/kg, liver, PO (QD*3), 1 h, individual animals, read-out: Liver 6641 PO (QD*3) concentration) was 3320 ng/g and the concentration at 3 h ([1]; C57BL/6J, liver, po, 10 mg/kg, liver, PO (QD*3), 3 h, individual animals, read-out: Liver 6641 PO (QD*3) concentration) was 1900 ng/g. The concentration at 7 h ([1]; C57BL/6 J, liver, po, 10 mg/kg, liver, PO (QD*3), 7 h, individual animals, read-out: Liver 6641 PO (QD*3) concentration) was 1010 ng/g, the concentration at 24 h ([1]; C57BL/6 J, liver, po, 10 mg/kg, liver, PO (QD*3), 24 h, individual animals, read-out: Liver 6641 PO (QD*3) concentration) was 32.3 ng/g and the concentration at 0.083 h ([1]; C57BL/6 J, liver, po, 10 mg/kg, liver, PO, 0.083 h, individual animals, N/A: Below detection level, read-out: Liver 6641 PO concentration) was 5.14 ng/g. The concentration at 0.25 h ([1]; C57BL/6 J, liver, po, 10 mg/kg, liver, PO, 0.25 h, individual animals, read-out: Liver 6641 PO concentration) was 321 ng/g, the concentration at 1 h ([1]; C57BL/6J, liver, po, 10 mg/kg, liver, PO, 1 h, individual animals, read-out: Liver 6641 PO concentration) was 3040 ng/g and the concentration at 3 h ([1]; C57BL/6J, liver, po, 10 mg/kg, liver, PO, 3 h, individual animals, read-out: Liver 6641 PO concentration) was 1940 ng/g. For the same compound, the concentration at 7 h ([1]; C57BL/6 J, liver, po, 10 mg/kg, liver, PO, 7 h, individual animals, read-out: Liver 6641 PO concentration) was 1210 ng/g, the concentration at 24 h ([1]; C57BL/6 J, liver, po, 10 mg/kg, liver, PO, 24 h, individual animals, read-out: Liver 6641 PO concentration) was 28.5 ng/g and the concentration at 48 h ([1]; C57BL/6 J, liver, po, 10 mg/kg, liver, PO, 48 h, individual animals, read-out: Liver 6641 PO concentration) was 2.88 ng/g. The concentration at 0.083 h ([1]; C57BL/6 J, plasma, iv, 3 mg/kg, IV, Time 0.083 h, individual values (1)-(3), read-out: Plasma concentration) was 2030 ng/mL, the concentration at 0.25 h ([1]; C57BL/6 J, plasma, iv, 3 mg/kg, IV, Time 0.25 h, individual values (1)-(3), read-out: Plasma concentration) was 1260 ng/mL and the concentration at 0.5 h ([1]; C57BL/6 J, plasma, iv, 3 mg/kg, IV, Time 0.5 h, individual values (1)-(3), read-out: Plasma concentration) was 721 ng/mL. For the same compound, the concentration at 1 h ([1]; C57BL/6 J, plasma, iv, 3 mg/kg, IV, Time 1 h, individual values (1)-(3), read-out: Plasma concentration) was 343 ng/mL, the concentration at 3 h ([1]; C57BL/6 J, plasma, iv, 3 mg/kg, IV, Time 3 h, individual values (1)-(3), read-out: Plasma concentration) was 220 ng/mL and the concentration at 7 h ([1]; C57BL/6 J, plasma, iv, 3 mg/kg, IV, Time 7 h, individual values (1)-(3), read-out: Plasma concentration) was 67.6 ng/mL. It also gave a concentration at 24 h ([1]; C57BL/6 J, plasma, iv, 3 mg/kg, IV, Time 24 h, individual values (1)-(3), read-out: Plasma concentration) of 4.37 ng/mL, a concentration at 48 h ([1]; C57BL/6 J, plasma, iv, 3 mg/kg, IV, Time 48 h, individual values (1)-(3), N/A: Below detection level, read-out: Plasma concentration) of 0.874 ng/mL and a concentration at 0.083 h ([1]; C57BL/6 J, plasma, po, 10 mg/kg, PO (QD*3), Time 0.083 h, individual values (1)-(3), read-out: Plasma concentration) of 8.04 ng/mL. The concentration at 0.25 h ([1]; C57BL/6 J, plasma, po, 10 mg/kg, PO (QD*3), Time 0.25 h, individual values (1)-(3), read-out: Plasma concentration) was 95.9 ng/mL, the concentration at 1 h ([1]; C57BL/6 J, plasma, po, 10 mg/kg, PO (QD*3), Time 1 h, individual values (1)-(3), read-out: Plasma concentration) was 336 ng/mL and the concentration at 3 h ([1]; C57BL/6 J, plasma, po, 10 mg/kg, PO (QD*3), Time 3 h, individual values (1)-(3), read-out: Plasma concentration) was 264 ng/mL. The concentration at 7 h ([1]; C57BL/6 J, plasma, po, 10 mg/kg, PO (QD*3), Time 7 h, individual values (1)-(3), read-out: Plasma concentration) was 144 ng/mL, the concentration at 24 h ([1]; C57BL/6 J, plasma, po, 10 mg/kg, PO (QD*3), Time 24 h, individual values (1)-(3), read-out: Plasma concentration) was 5.56 ng/mL and the concentration at 48 h ([1]; C57BL/6 J, plasma, po, 10 mg/kg, PO (QD*3), Time 48 h, individual values (1)-(3), N/A: Below detection level, read-out: Plasma concentration) was 1.04 ng/mL. The concentration at 0.083 h ([1]; C57BL/6 J, plasma, po, 10 mg/kg, PO, Time 0.083 h, individual values (1)-(3), N/A: Below detection level, read-out: Plasma concentration) was 1.64 ng/mL, the concentration at 0.25 h ([1]; C57BL/6 J, plasma, po, 10 mg/kg, PO, Time 0.25 h, individual values (1)-(3), read-out: Plasma concentration) was 43.8 ng/mL and the concentration at 1 h ([1]; C57BL/6 J, plasma, po, 10 mg/kg, PO, Time 1 h, individual values (1)-(3), read-out: Plasma concentration) was 369 ng/mL. It also gave a concentration at 3 h ([1]; C57BL/6 J, plasma, po, 10 mg/kg, PO, Time 3 h, individual values (1)-(3), read-out: Plasma concentration) of 219 ng/mL, a concentration at 7 h ([1]; C57BL/6 J, plasma, po, 10 mg/kg, PO, Time 7 h, individual values (1)-(3), read-out: Plasma concentration) of 134 ng/mL and a concentration at 24 h ([1]; C57BL/6 J, plasma, po, 10 mg/kg, PO, Time 24 h, individual values (1)-(3), read-out: Plasma concentration) of 4.25 ng/mL. For the same compound, the concentration at 48 h ([1]; C57BL/6 J, plasma, po, 10 mg/kg, PO, Time 48 h, individual values (1)-(3), N/A: Below detection level, read-out: Plasma concentration) was 1.39 ng/mL, the “BV/TV (%)” value [2] was “trend toward increased and 21.83% and 22.07% and 25.65% and 21.31% and 23.44% and 26.86% and 22.32% and 23.17% and 21.16% and 25.39% and 23.83% and 22.19% and 23.69% and 23.39% and 21.11%” and the Conn.D [2] was “No changes and 105.367 1/mm^3 and 104.207 1/mm^3 and 139.801 1/mm^3 and 114.117 1/mm^3 and 100.266 1/mm^3 and 110.113 1/mm^3 and 116.566 1/mm^3 and 102.739 1/mm^3 and 105.531 1/mm^3 and 114.364 1/mm^3 and 111.763 1/mm^3 and 100.184 1/mm^3 and 109.218 1/mm^3 and 125.466 1/mm^3 and 120.228 1/mm^3”. The Mat.D [2] was “No changes and 789.633 VOI-mg HA/ccm and 806.041 VOI-mg HA/ccm and 814.578 VOI-mg HA/ccm and 814.711 VOI-mg HA/ccm and 826.05 VOI-mg HA/ccm and 764.488 VOI-mg HA/ccm and 771.958 VOI-mg HA/ccm and 779.095 VOI-mg HA/ccm and 769.29 VOI-mg HA/ccm and 795.903 VOI-mg HA/ccm and 795.302 VOI-mg HA/ccm and 809.309 VOI-mg HA/ccm and 793.168 VOI-mg HA/ccm and 804.707 VOI-mg HA/ccm and 800.171 VOI-mg HA/ccm”, the Tb.N [2] was “significant increase and 4.0038 mm-1 and 4.0307 mm-1 and 4.3607 mm-1 and 4.399 mm-1 and 4.0225 mm-1 and 4.1566 mm-1 and 4.1337 mm-1 and 4.2031 mm-1 and 4.3359 mm-1 and 3.9986 mm-1 and 4.1625 mm-1 and 3.9653 mm-1 and 4.2022 mm-1 and 4.1463 mm-1 and 4.168 mm-1” and the Tb.Sp [2] was “decreased and 0.2416 mm and 0.2439 mm and 0.2173 mm and 0.2168 mm and 0.234 mm and 0.2335 mm and 0.2409 mm and 0.2383 mm and 0.2244 mm and 0.2446 mm and 0.2447 mm and 0.2276 mm and 0.235 mm and 0.2349 mm”. For the same compound, the Tb.Th [2] was “significant increase and 0.0544 mm and 0.0558 mm and 0.0561 mm and 0.0524 mm and 0.0567 mm and 0.0611 mm and 0.0571 mm and 0.0582 mm and 0.0525 mm and 0.0589 mm and 0.057 mm and 0.056 mm and 0.0578 mm and 0.0547 mm and 0.0543 mm”.

From article PMC9636434, “Discovery of small molecule agonists of the Relaxin Family Peptide Receptor 2” (Communications Biology, 2022)
